Measured values as given in EP4772186A1, “USE AND COMPOSITION OF POSTBIOTIC OF LACTOBACILLUS PARACASEI ET-22” (Inner Mongolia Yili Industrial Group Co., Ltd., priority 2023, dated 2025).

How the values were obtained:
[1] = system: halitosis virulence factors, including cdl, fadA, mgl, and gtfb; experiment: RT-PCR of virulence factors in multi-species biofilm; format: cell-based; details: compared with CK group, 2^-△△CT method
Experimental: (§1) 100 µl of saliva was added to a 24-well plate, then 100 µl of the corresponding concentration solution was added respectively to the experimental groups, and finally 800 µl of SHI medium was added. The plate was placed in an anaerobic box and cultured anaerobically at 37°C for 10 hours. Then, the supernatant was discarded, and the multi-species biofilm adhered to the well plate was obtained. After discarding the supernatant from the incubated biofilm, the biofilm adhered to the bottom of the well plate was re-suspended with sterile water by pipetting, transferred to a 1.5 ml centrifuge tube, and stored until gene sequencing was performed.
This example evaluated the effects of lysate, NAD, 2-hydroxy-3-phenylpropionic acid, polypeptide GP(Hyp)GAG, and peptidoglycan on halitosis virulence factors, including cdl, fadA, mgl, and gtfb. The gene cdl can regulate the expression of L-cysteine […], which can catalyze the degradation of protein substrate to produce VSC, thereby causing halitosis. Fusobacterium nucleatum secretes an amyloid-like adhesin (fadA) via the fap2-like autotransporter protein to enhance its virulence. […]
After the sample RNA was reverse-transcribing into cDNA, RT-PCR reaction was performed to detect biofilm-related virulence factors. Experimental results were calculated using the 2^-△△CT method. […]

[2] = system: Solobacterium moorei; experiment: in vitro oral biofilm model, sequencing: relative abundance; format: cell-based
Experimental: as §1
Based on sequencing results, halitosis-causing pathogenic bacteria in the biofilm were identified. Four key halitosis-causing pathogenic bacteria were identified: Fusobacterium nucleatum, Streptococcus mutans, Prevotella intermedia, and Solobacterium moorei. All four bacteria had been proven to be positively correlated with VSC concentration. […] Therefore, this example adopts lysate, NAD, 2-hydroxy-3-phenylpropionic acid, and polypeptide GP(Hyp)GAG to intervene in halitosis-causing pathogenic bacteria in the biofilm, evaluating changes in the relative abundance of pathogenic bacteria after intervention. Additionally, Prevotella intermedia is a periodontal pathogen that can produce indole via the tryptophan metabolic pathway. […]

[3] = system: multi-species biofilm; experiment: biomass of multi-species biofilm, crystal violet staining; format: cell-based, halitosis subjects (saliva)
Experimental: The association between biofilm biomass and halitosis degree were analyzed by evaluating biofilm formation under intervention with ET-22 viable bacteria, heat-inactivated bacteria, lysate, NAD, 2-hydroxy-3-phenylpropionic acid and peptidoglycan. Test method included the following.
(§2) Lysate Group: 10 µl of saliva was added to a 96-well plate, followed by separate addition of ET-22 viable bacteria (1.0×10^9 CFU/ml), ET-22 heat-inactivated bacterial cells (obtained by inactivating viable bacteria at 1.0×10^9 CFU/ml), and lysate (obtained by inactivating and filtering viable bacteria at 1.0×10^9 CFU/ml), each at 100 µl. Then, 80 µl of SHI medium was added. The plate was placed in an anaerobic box and cultured anaerobically at 37°C for 10 hours. Six replicates were set for each group.
as §2, with “NAD” for “Lysate”, “heat-inactivating” for “inactivating”, “NAD (100 µg/ml),” for “lysate (obtained by inactivating and filtering viable bacteria at 1.0×10^9 CFU/ml),”, “group. […]” for “group.”
(5) The well plate was placed in a microplate reader and the biofilm biomass was measured at 600 nm.

What does the source list for `O=C(O)C(O)Cc1ccccc1` (centres unmarked) [2-hydroxy-3-phenylpropionic acid]?
expression of virulence factors (cdl, fadA, mgl, gtfb) [1]: significantly regulate; growth of Solobacterium moorei (relative abundance) ([2]; multi-species biofilm, 37°C 10 hours): significantly inhibit the growth; inhibitory effect on Solobacterium moorei ([2]; relative to ET-22 viable bacteria or ET-22 heat-inactivated bacteria): better; biofilm biomass ([3]; compared with CK group, optical density, pure components 100 µg/ml, others from 1.0×10^9 CFU/ml, 37°C 10 hours): significant decrease; intervention effect on the biofilm biomass ([3]; relative to ET-22 viable bacteria and heat-inactivated bacteria): better
